The results in this text go back to patent US20070185119A1, “Therapeutic agents II” (ASTRAZENECA AB, priority 2004, published 2007).

This assay addresses T1, human Melanin concentrating hormone receptor 1 (MCH1r) (Homo sapiens, UniProt Q99705).
T1 construct: expressed in transfected cells; host or cells: CHO-K1 cells (membranes)
Nature of the assay: MCH1 receptor radioligand binding (125I-MCH, CHO-K1 cell membranes). The settings on record: human MCHr binding assay. Here is the method:
MCH1 Receptor Radioligand Binding.
Assays were performed on membranes prepared from CHO-K1 cells expressing the human Melanin concentrating hormone receptor 1 (MCH1r). Assays were performed in a 96-well plate format in a final reaction volume of 200 μl per well. Each well contained 6 μg of membrane proteins diluted in binding buffer (50 mM Tris, 3 mM MgCl2, 0.05% bovine serum albumin (BSA) and the radioligand ^125I-MCH (IM344 Amersham) was added to give 10 000 cpm (counts per minute) per well. Each well contained 2 μl of the appropriate concentration of competitive antagonist prepared in DMSO and left to stand at 30° C. for 60 minutes. Non-specific binding was determined as that remaining following incubation with 1 μM MCH (Melanin concentrating hormone, H-1482 Bachem). The reaction was terminated by transfer of the reaction to GF/A filters using a Micro96 Harvester (Skatron Instruments, Norway). Filters were washed with assay buffer. Radioligand retained on the filters was quantified using a1450 Microbeta TRILUX (Wallac, Finland).
Non-specific binding was subtracted from all values determined. Maximum binding was that determined in the absence of any competitor following subtraction of the value determined for non-specific binding. […]

T1 sequence (Q99705 whole entry): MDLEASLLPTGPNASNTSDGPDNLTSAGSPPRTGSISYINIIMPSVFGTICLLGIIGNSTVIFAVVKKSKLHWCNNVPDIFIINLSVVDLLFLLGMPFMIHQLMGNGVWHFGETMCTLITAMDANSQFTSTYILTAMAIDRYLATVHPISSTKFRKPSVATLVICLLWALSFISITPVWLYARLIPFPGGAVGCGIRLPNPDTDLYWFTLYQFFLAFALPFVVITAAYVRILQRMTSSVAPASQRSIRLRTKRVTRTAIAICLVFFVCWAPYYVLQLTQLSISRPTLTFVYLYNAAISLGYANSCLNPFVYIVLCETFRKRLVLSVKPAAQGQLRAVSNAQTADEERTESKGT

`CN(C)c1nc(N[C@H]2CCC[C@H](NCc3cn(C)c4ccccc34)C2)nc2ccccc12` (relative stereo) [Example 4, N^4,N^4-dimethyl-N^2-(-3-{[(1-methyl-1H-indol-3-yl)methyl]amino}-trans-cyclohexyl)quinazoline-2,4-diamine] returned an IC50 of 15 nM.

In general, IC50 refers to the concentration that gives 50% inhibition.
